From patent publication US6512003B2, “Synthetic spiroketal pyranes as potent anti-cancer agents and use” (Parker Hughes Institute, priority 1998, dated 2003)

Columns and labels:
[1] = tested on: human BT-20 breast cancer cells; test: Apoptosis of breast cancer cells by transmission electron microscopy; type: cell-based; conditions: BT-20 cells, FIG. 6
Experimental: (§1) The effects of spiroketal pyrans on the survival of human breast cancer cells were examined in vitro. Cells were incubated at 37° C. for the indicated time periods with the title compounds. At the end of the incubation, cells were washed twice with PBS and fixed in 2% paraformaldehyde and examined by microscopy.

[2] = tested on: human breast cancer cells; test: Confocal laser scanning microscopy of microtubules (alpha-tubulin immunofluorescence) and mitotic index; type: cell-based; design: microtubule organization and cell morphology: dose or concentration left out as unconfirmed; conditions: for microtubule organization and cell morphology: confocal microscopy, FIG. 7
Experimental: as §1
The effects of SPIKET-P1 on human breast cancer cells was also examined using confocal laser scanning microscopy^14. After fixing, the cells were permeabilized and non-specific binding sites were blocked with 2.5% BSA in PBS containing 0.1% Triton X-100 for 30 minutes. Tubulin expression was examined by immunofluorescence using a monoclonal antibody against α-tubulin (Sigma Chemical Co, St. Louis, Mo.) at a dilution of 1:1000 and an lanti-mouse IgG conjugated to FITC. Cells were washed in PBS and counterstained with toto-3 (Molecular Probes Inc., Eugene, Oreg.) for 10 minutes at a dilution of 1:1000. Cells were washed again with PBS and the coverslips were mounted with Vectashield (Vector Labs, Burlingame, Calif.) and viewed with a confocal microscope (Bio-Rad MRC 1024) mounted in a Nikon Labhophot upright microscope.
Digital images were saved on a Jaz disk and processed with Adobe Photoshop software (Adobe Systems, Mountain View, Calif.).
Vehicle-treated control cells are adherent with a well organized microtubule cytoskeleton, seen in the control (FIG. 7A) in green. […] Additionally, membrane blebbing and nuclear fragmentation was observed. Large vacuoles were present within treated cells. SPIKET-P-1 also affected the mitotic index, 2.25% of control cells were in mitosis whereas 0.0% of treated cells were in mitosis (23/1024 vs 0/1000, respectively).

[3] = tested on: tubulin; conditions: cited from earlier work

| Compound | induction of apoptosis [1] | microtubule organization and cell morphology [2] | microtubule organization and cell morphology ([2]; listed as SPA-1) | mitotic index (cells in mitosis) ([2]; treated cells 0/1000, control cells 2.25% (23/1024)) | inhibition of binding of vinc alkaloids / colchicin to tubulin [3] |
| --- | --- | --- | --- | --- | --- |
| OC1CC(CCOCc2ccccc2)OC2(C1)CC(O)CC(CCOCc1ccccc1)O2 (stereo not shown) [NP-25, 1,13-dibenzyloxy-5,9-dihydroxy-spiroketal] | induce apoptosis in human breast cancer cells |  |  |  |  |
| OC[C@H]1CCCC2(CCC[C@H](CO)O2)O1 [SPIKET-P1, [(2R,8R)-8-(hydroxymethyl)-1,7-dioxaspiro[5,5]undec-2-yl]methan-1-ol] | induce apoptosis in human breast cancer cells | destruction of the microtubule organization, membrane blebbing, and nuclear fragmentation consistent with apoptosis | fewer, less organized microtubules | 0.0% |  |
| c1ccc(COC[C@H]2CCCC3(CCC[C@H](COCc4ccccc4)O3)O2)cc1 [SPIKET-P1-P, Benzyl-protected SPIKET-P1] | induce apoptosis in human breast cancer cells |  |  |  |  |
| Spongistatin |  |  |  |  | inhibit the binding of vinc alkaloids (but not colchicin) to tubulin |
